Counter-ions that a name gives are not always drawn.
Assays:
[1] = Particle size distribution, z-potential and pH of aqueous solutions of α-T3DMG with or without TCA; format: physicochemical
Protocol: The fitting curves were obtained by the plateau model using GraphPad Prism to indicate a smoothing curve connecting each point. The z-average with PDI and the z-potential of the aqueous solution of α-[…] with or without TCA, as described in Section 4.7.1, were determined using a Zetasizer Nano ZS (MALVERN, Worcestershire, UK). Measurements were independently performed three times for each sample. The pH of the aqueous solution of α-[…] with or without TCA is described in Section 4.7.1. It was measured using a LAQUAtwin pH-11 pocket water quality meter (HORIBA, Ltd., Kyoto, Japan).

[2] = Plasma α-T3 pharmacokinetics after gastrostomy administration in bile duct-ligated rats; format: in vivo, rat
Protocol: The SD rats were fasted for 16 h, and they were provided drinking water ad libitum prior to the administration of the test compounds. The rats were administered three types of mixed anesthetic agents (medetomidine, midazolam, and butorphanol) under isoflurane anesthesia. To avoid the influence of intrinsic bile flow on intestinal absorption, a catheter was inserted into the bile ducts of the rats. The catheter was ligated with strings, and intrinsic bile flow was excluded. This animal model was referred to in an animal experimental book in Japanese, titled in English as, “An atlas of experimental animal technology” published in 1998; this method is very similar to that described in Figure 5 of Jaber et al..
Dosing solutions were prepared as follows: (i) 5.88 mmol/L α-T3DMG and 5.88 mmol/L TCA in water (α-T3DMG:TCA = 1:1), (ii) 5.88 mmol/L α-T3DMG and 11.76 mmol/L TCA in water (α-T3DMG:TCA = 1:2), and (iii) 5.88 mmol/L α-T3 and 11.76 mmol/L TCA in water (α-T3:TCA = 1:2). The α-T3 was dispersed in silica powder in ethanol, and the solvent was removed in vacuo prior to dispersion in water. The ligated rats were administered […] of α-T3DMG or α-T3 via gastrostomy. The doses were 12.5 mg/kg of body weight equivalent for α-T3.
Blood samples (200 µL) were collected from the external jugular vein under isoflurane anesthesia using heparinized syringes at 0.5, 1, 2, 3, 4, 6, 8, and 24 h. […]

[3] = Water solubility; format: physicochemical; conditions: distilled water, 25 ± 1 °C, shaken 3 h
Protocol: The aqueous solubility of each ester was determined by adding 50 μmol of each compound to 1 mL of distilled water in amber test tubes and incubating the tubes at 25 ± 1 °C in a constant-temperature water bath. The test tubes were shaken for 3 h, and the suspensions were filtered using a membrane filter (MF-Millipore™ Membrane Filter, 0.45 µm pore size, Merck KGaA, Darmstadt, Germany). The filtered media, including α-T3DMG, was assayed using the liquid chromatography (LC)-MS/MS method described in Section 4.8.

[4] = Stability in water; format: physicochemical
[5] = Enzymatic hydrolysis of α-T3 esters in rat plasma; format: in vitro ADME; conditions: pH 7.4, 37 °C, Michaelis–Menten fit
[6] = Enzymatic hydrolysis of α-T3 esters in rat liver microsomes; format: in vitro ADME; conditions: rat liver microsome, pH 7.4, 37 °C, Michaelis–Menten fit; for Km: liver microsomes
Protocol: The hydrolysis of esters was analyzed at 37 °C in phosphate-buffered saline (PBS) containing commercially available rat liver microsomes (In Vitro Technologies, Inc., Baltimore, MD, USA). The microsomes (20 mg/mL) were adjusted to a protein concentration of 0.11 mg/mL and preincubated at 37 °C for 5 min before adding the esters.
Stock solutions of the esters were prepared in a 5% methanol aqueous solution. Enzymatic reactions were initiated by adding 50 µL ester stock solution (final concentration 50–800 μmol/L) and 50 μL PBS to 900 µL preheated reaction medium containing rat liver microsomes in amber test tubes. These reactions were incubated at 37 °C; and, at various times, 100 μL aliquots were removed and mixed with 350 µL ethanol. Samples were then vortexed for 2 min and centrifuged at 1750 g for 5 min. The aliquot was analyzed using the LC-MS/MS system described in Section 4.8. The initial hydrolytic rate (μmol/L α-T3 formed per min) was calculated from the initial slope of the plot of α-T3 concentration versus time.

[7] = Effect of eserine (esterase inhibitor) on ester hydrolysis in rat liver microsomes; format: in vitro ADME; conditions: eserine 0–2.0 mmol/L
Protocol: The effects of eserine on α-T3DMG hydrolysis in rat liver microsomes were also examined using similar methods, with 50 µL eserine aqueous solution instead of PBS, added to the mixtures with liver microsomes. Eserine was tested at 0–2.0 mmol/L.

[8] = Appearance of aqueous solutions of α-T3DMG with or without TCA; format: physicochemical
Protocol: A stock solution of α-T3DMG was prepared in milliQ and combined with different concentrations of taurocholic acid (TCA) aqueous solution to the final molar ratios (α-T3DMG/TCA = 1/0.1–4). The fitting curves were obtained by the plateau model using GraphPad Prism to indicate a smoothing curve connecting each point.

[9] = Distribution of α-T3DMG to n-octanol and water phases; format: physicochemical; conditions: increasing TCA molar ratio
Protocol: The fitting curves were obtained by the plateau model using GraphPad Prism to indicate a smoothing curve connecting each point. The prepared solutions described in Section 4.7.1 were combined with the same volume of n-octanol and then vortexed for 2 min. The solutions were then centrifuged at 20,600× g for 20 min. The upper layer (n-octanol) and the lower layer (water) were collected, diluted with ethanol, and subjected to LC-MS/MS, as described in Section 4.7.

[10] = Toxicity observation in the in vivo study; conditions: bile duct-ligated rats, 12.5 mg/kg α-T3 equivalent, gastrostomy
[11] = 5.88 mmol/L α-T3DMG, TCA molar ratio 0
[12] = 5.88 mmol/L α-T3DMG, TCA molar ratio 0.3
[13] = 5.88 mmol/L α-T3DMG, TCA molar ratio 0.9
[14] = 5.88 mmol/L α-T3DMG, TCA molar ratio 1
[15] = 5.88 mmol/L α-T3DMG, TCA molar ratio 1.5
[16] = 5.88 mmol/L α-T3DMG, TCA molar ratio 3
[17] = 5.88 mmol/L α-T3DMG, TCA molar ratio 4
[18] = 23.52 mmol/L α-T3DMG, TCA molar ratio 0
[19] = 23.52 mmol/L α-T3DMG, TCA molar ratio 0.3
[20] = 23.52 mmol/L α-T3DMG, TCA molar ratio 1.5
[21] = 23.52 mmol/L α-T3DMG, TCA molar ratio 3
[22] = 23.52 mmol/L α-T3DMG, TCA molar ratio 4

CNCC(=O)Oc1c(C)c(C)c2c(c1C)CC[C@@](C)(CC/C=C(\C)CC/C=C(\C)CCC=C(C)C)O2 (as salt: hydrochloride) [α-T3MG, 2R-α-Tocotrienyl N-methylglycinate]
melting point: 170 to 173 °C

C[C@H](CCC(=O)NCCS(=O)(=O)O)[C@H]1CC[C@H]2[C@@H]3[C@H](O)C[C@@H]4C[C@H](O)CC[C@]4(C)[C@H]3C[C@H](O)[C@]12C [TCA, taurocholic acid, reference compound]
z-potential ([1]; TCA without α-T3DMG in water, 23.52 mmol/L): −38.9 ± 1.9 mV

CC(C)=CCC/C(C)=C/CC/C(C)=C/CC[C@]1(C)CCc2c(C)c(O)c(C)c(C)c2O1 [α-T3, 2R-α-Tocotrienol]
plasma α-T3 levels after postprandial (TCA 1:2) administration of α-T3 compared with fasting (TCA 1:1) administration of α-T3DMG ([2]; gastrostomy, Supplementary Figure S2): similar

CC(C)=CCC/C(C)=C/CC/C(C)=C/CC[C@]1(C)CCc2c(C)c(OC(=O)CN(C)C)c(C)c(C)c2O1 [α-T3DMG, 2R-α-Tocotrienyl N,N-dimethylglycinate hydrochloride]
solubility at 3 h [3]: > 50000 µM
degradation in water ([4]; incubated at 5 and 20 °C for 28 days): did not exhibit any degradation
stability in water ([4]; room temperature (20 °C) for a month): stable
half-life ([4]; water, accelerated condition at 40 °C): ~27 days
Km [5]: 664 µM
Vmax [5]: 8.138e-08 mol/L/min
Km [6]: 5720 µM
Vmax [6]: 0.0001395 mol/L/min
hydrolysis in the presence of eserine [7]: completely inhibited
PDI [1, 11]: 0.542 ± 0.034
Z-Average [1, 11]: 282.0 ± 8.9 nm
Z-Potential [1, 11]: 95.4 ± 2.5 mV
pH [1, 11]: 3.0
PDI [1, 12]: 0.428 ± 0.014
Z-Average [1, 12]: 12.6 ± 0.2 nm
Z-Potential [1, 12]: 48.3 ± 7.5 mV
pH [1, 12]: 3.2
PDI [1, 13]: 0.228 ± 0.039
Z-Average [1, 13]: 3.8 ± 1.1 nm
Z-Potential [1, 13]: 19.1 ± 12.2 mV
pH [1, 13]: 3.8
PDI [1, 14]: 0.203 ± 0.064
Z-Average [1, 14]: 5.3 ± 3.5 nm
Z-Potential [1, 14]: 8.70 ± 6.17 mV
pH [1, 14]: 3.8
PDI [1, 15]: 0.161 ± 0.045
Z-Average [1, 15]: 3.1 ± 0.0 nm
Z-Potential [1, 15]: −4.35 ± 1.99 mV
pH [1, 15]: 4.1
PDI [1, 16]: 0.217 ± 0.009
Z-Average [1, 16]: 4.3 ± 1.8 nm
Z-Potential [1, 16]: −0.0299 ± 0.260 mV
pH [1, 16]: 4.6
PDI [1, 17]: 0.466 ± 0.068
Z-Potential [1, 17]: −22.1 ± 3.37 mV
pH [1, 17]: 4.7
Z-Average ([1]; 5.88 mmol/L α-T3DMG, TCA molar ratio 4, ambiguous data (footnote a)): 163.7 ± 84.5 ^a nm
PDI [1, 18]: 0.490 ± 0.020
Z-Average [1, 18]: 307.8 ± 8.6 nm
pH [1, 18]: 2.7
PDI [1, 19]: 0.336 ± 0.026
Z-Average [1, 19]: 6.6 ± 0.1 nm
pH [1, 19]: 3.5
pH ([1]; 23.52 mmol/L α-T3DMG, TCA molar ratio 0.9): 3.9
PDI ([1]; 23.52 mmol/L α-T3DMG, TCA molar ratio 0.9, ambiguous data (footnote a)): 0.286 ± 0.231 ^a
Z-Average ([1]; 23.52 mmol/L α-T3DMG, TCA molar ratio 0.9, ambiguous data due to precipitation (footnote b)): 4.2 ± 0.4 ^b nm
pH ([1]; 23.52 mmol/L α-T3DMG, TCA molar ratio 1): 3.9
PDI ([1]; 23.52 mmol/L α-T3DMG, TCA molar ratio 1, ambiguous data (footnote a)): 0.250 ± 0.179 ^a
PDI [1, 20]: 0.190 ± 0.045
Z-Average [1, 20]: 9.2 ± 6.1 nm
pH [1, 20]: 4.4
PDI [1, 21]: 0.219 ± 0.051
Z-Average [1, 21]: 22.4 ± 15.1 nm
pH [1, 21]: 4.8
PDI [1, 22]: 0.217 ± 0.005
Z-Average [1, 22]: 23.7 ± 12.2 nm
pH [1, 22]: 4.8
appearance in water ([8]; absence of TCA, all concentrations (2.94–23.52 mmol/L)): cloudy
appearance of mixed solution ([8]; equal molar ratio of TCA versus 23.52 mmol/L α-T3DMG): white precipitation
appearance in water ([8]; presence of TCA, except 23.52 mmol/L α-T3DMG at α-T3DMG:TCA 1:0.9 and 1:1): transparent
α-T3DMG levels in the n-octanol phase [9]: reached a plateau at approximately equal molar ratios of α-T3DMG and TCA
plasma levels of α-T3DMG (ester form) relative to α-T3 ([2]; gastrostomy of α-T3DMG with TCA): 4–10%
toxicity or abnormalities in rats and blood samples [10]: no toxicity or abnormalities were observed

CNCC(=O)Oc1c(C)c(C)c2c(c1C)CC[C@@](C)(CC/C=C(\C)CC/C=C(\C)CCC=C(C)C)O2 [α-T3MG, 2R-α-Tocotrienyl N-methylglycinate]
solubility at 3 h [3]: > 50000 µM
Km [5]: 1460 µM
Vmax [5]: 5.573e-07 mol/L/min
Km [6]: 176 µM
Vmax [6]: 2.051e-06 mol/L/min
hydrolysis in the presence of eserine [7]: completely inhibited

CC(C)=CCC/C(C)=C/CC/C(C)=C/CC[C@]1(C)CCc2c(C)c(OC(=O)CCC(=O)O)c(C)c(C)c2O1 [α-T3Suc, 2R-α-Tocotrienyl acid succinate]
Km [5]: 1290 µM
Vmax [5]: 1.033e-07 mol/L/min
Km [6]: 61.6 µM
Vmax [6]: 7.426e-08 mol/L/min

From article PMC9102404, “Cationic N,N-Dimethylglycine Ester Prodrug of 2R-α-Tocotrienol Promotes Intestinal Absorption via Efficient Self-Micellization with Intrinsic Bile Acid Anion” (Molecules, 2022)
